Experimental data from BindingDB's records for doi:10.1016/j.ejmech.2012.12.014 (Universitat De Barcelona, 2013).

How the values were obtained:
[1] = molecular target: T1, Glycogen synthase kinase-3 beta (Homo sapiens, UniProt P49841); test: (§1) Inhibition of human recombinant GSK-3beta using GS2 peptide as substrate and [gamma33P]-ATP after 30 mins by scintillation counting
[2] = molecular target: T1, Glycogen synthase kinase-3 beta; test: as §1; remark: listed apart in the source
[3] = molecular target: T2, Glycogen synthase kinase-3 alpha (Homo sapiens, UniProt P49840); test: (§2) Inhibition of human recombinant GSK-3alpha using GS2 peptide as substrate and [gamma33P]-ATP after 12 mins by scintillation counting
T2 sequence (P49840 whole entry): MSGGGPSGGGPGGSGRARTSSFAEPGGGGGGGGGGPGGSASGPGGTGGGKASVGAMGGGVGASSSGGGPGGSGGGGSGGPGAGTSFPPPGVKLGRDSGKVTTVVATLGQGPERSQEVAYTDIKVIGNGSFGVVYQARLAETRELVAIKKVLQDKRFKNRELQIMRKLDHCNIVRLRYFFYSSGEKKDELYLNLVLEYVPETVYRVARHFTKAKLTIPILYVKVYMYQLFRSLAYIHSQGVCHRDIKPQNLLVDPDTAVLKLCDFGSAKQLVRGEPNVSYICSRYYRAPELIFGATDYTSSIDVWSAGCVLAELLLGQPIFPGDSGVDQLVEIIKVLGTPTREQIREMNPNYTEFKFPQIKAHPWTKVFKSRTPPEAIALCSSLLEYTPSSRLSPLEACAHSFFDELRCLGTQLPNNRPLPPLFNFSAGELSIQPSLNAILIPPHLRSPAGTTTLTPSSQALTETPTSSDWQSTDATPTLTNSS

[4] = molecular target: T3, Cyclin-dependent kinase 5 (Homo sapiens, UniProt Q00535); test: (§3) Inhibition of human recombinant CDK5 using histone H1 as substrate and [gamma33P]-ATP after 20 mins by scintillation counting
T3 sequence (Q00535 whole entry): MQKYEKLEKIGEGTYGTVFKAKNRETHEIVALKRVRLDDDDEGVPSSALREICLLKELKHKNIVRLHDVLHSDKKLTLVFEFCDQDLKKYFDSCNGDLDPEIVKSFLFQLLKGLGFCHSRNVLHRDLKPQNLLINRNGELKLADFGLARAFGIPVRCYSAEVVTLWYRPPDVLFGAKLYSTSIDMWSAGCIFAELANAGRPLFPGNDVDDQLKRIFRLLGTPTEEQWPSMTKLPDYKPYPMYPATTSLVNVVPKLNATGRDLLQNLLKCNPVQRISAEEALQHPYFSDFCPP

[5] = molecular target: T3, Cyclin-dependent kinase 5; test: as §3; remark: listed apart in the source
[6] = molecular target: T4, Cyclin-dependent kinase 1 (Homo sapiens, UniProt P06493); test: (§4) Inhibition of human recombinant CDK1 using histone H1 as substrate and [gamma33P]-ATP after 15 mins by scintillation counting
T4 sequence (P06493 whole entry): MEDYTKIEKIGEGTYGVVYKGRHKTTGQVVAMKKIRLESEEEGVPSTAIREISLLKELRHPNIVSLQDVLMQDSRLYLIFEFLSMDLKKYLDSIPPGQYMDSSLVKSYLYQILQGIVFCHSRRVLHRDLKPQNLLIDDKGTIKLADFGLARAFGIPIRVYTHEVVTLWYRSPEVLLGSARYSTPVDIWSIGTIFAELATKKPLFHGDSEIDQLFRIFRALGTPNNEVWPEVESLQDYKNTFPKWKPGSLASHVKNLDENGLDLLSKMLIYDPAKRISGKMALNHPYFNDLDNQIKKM

[7] = molecular target: T4, Cyclin-dependent kinase 1; test: as §4; remark: listed apart in the source
[8] = molecular target: T2, Glycogen synthase kinase-3 alpha; test: as §2; remark: listed apart in the source

T1 sequence (P49841 whole entry): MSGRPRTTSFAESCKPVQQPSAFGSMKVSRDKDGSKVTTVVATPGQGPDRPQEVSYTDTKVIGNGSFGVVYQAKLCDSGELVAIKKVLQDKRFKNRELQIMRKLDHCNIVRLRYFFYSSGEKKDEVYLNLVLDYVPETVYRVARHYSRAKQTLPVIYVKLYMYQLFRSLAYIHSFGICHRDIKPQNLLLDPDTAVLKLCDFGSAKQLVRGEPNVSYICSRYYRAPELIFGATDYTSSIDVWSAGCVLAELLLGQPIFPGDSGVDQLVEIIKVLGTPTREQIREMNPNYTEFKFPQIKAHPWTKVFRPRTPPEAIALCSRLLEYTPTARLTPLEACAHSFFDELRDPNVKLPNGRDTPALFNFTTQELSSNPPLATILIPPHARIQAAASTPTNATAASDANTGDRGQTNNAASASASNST

Row | IC50 [1] | IC50 [2] | IC50 [3] | IC50 [4] | IC50 [5] | IC50 [6] | IC50 [7] | IC50 [8] | Compound
1 | > 50 µM | > 50 µM | – | – | – | – | – | – | CCCCCCCC(=O)OC[C@H](O)[C@H]1OC(=O)C(O)C1=O (some centres not stated)
2 | 2.34 µM | 2.34 µM | – | – | – | – | – | – | C/C(=C/CC[C@@H](C)C=C1OC(=O)C(C)C1=O)CCCc1coc(Cc2ccoc2)c1 (some centres not stated) [Ircinin 2]
3 | 1.91 µM | 1.91 µM | 1.62 µM | < 25.1 µM | < 25.1 µM | < 100 µM | < 100 µM | 1.62 µM | C/C(=C\C=C\C(C)CC/C=C(\C)C[C@H]1OC(=O)C(C)C1=O)CCCc1ccoc1 (some centres not stated) [PALINURIN]
